Data reported in patent publication US10493087B2, “Sialylation-increasing therapies for diseases associated with oxidative stress” (THE UNITED STATES OF AMERICA, AS REPRESENTED BY THE …, priority 2015, dated 2019).

Assays:
[1] = tested on: GNE myopathy mice skeletal muscle tissue; conditions: cited from earlier work; for Hyposialylation of GNE myopathy mice skeletal muscle tissue: Niethamer et al., Mol Genet Metab 2012
GNE myopathy mice = conditions: cited from earlier work; for Prevention of muscle disease in GNE myopathy mice: prophylactic, Malicdan et al., Nature Med 2009
[2] = tested on: heart tissue of GNE −/− mice; test: SNA lectin staining of heart sections (sialylation status); assay type: in vivo; conditions: ~1 year old GNE −/− mice treated since age 10 weeks with 2 g/kg/day; vs untreated GNE −/− mice
Method: Mouse hearts or skeletal muscle (gluteus) were harvested and fixed in 4% paraformaldehyde for 48 hours at room temperature, dehydrated in 70% ethanol at 4° C., and paraffin-embedded for sectioning (Histoserv, Gaithersburg, Md.). Tissue sections (5 um) were stained with a variety of lectins, as previously described for mouse kidneys and muscle (Kakani et al., Am J Pathol 2012; 180: 1431-40; Niethamer et al., Mol Genet Metab 2012; 107: 748-55) as well as for GNE myopathy patients' muscle (Leoyklang et al., Biomarkers Med 2014; 8: 641-52). Lectin histochemistry was performed with fluorescein isothiocyanate (FITC) labeled lectins WGA and VVA from EY Laboratories (San Mateo, Calif.) and SNA from Vector Laboratories (Burlingame, Calif.). Each slide was also stained with the nuclear dye DAPI. Fluorescence imaging of multiple sections of heart per slide was performed under a Zeiss 510 META confocal laser-scanning microscope. All fluorescent images represent collapsed stacks of confocal Z-sections, imaged at 63× magnification.

GNE Myopathy myotubes [3] = test: ROS generation under pro-oxidants (H2O2 or menadione), ΔDCF fluorescence; assay type: cell-based, mice; conditions: GNE Myopathy myotubes incubated before and during exposure to H2O2 and menadione; vs untreated; p<0.01
Method: (§1) Cell cultures and myotubes analysis: Myocytes from Gne^−/−hGNED176V-Tg mice and littermate controls were proliferated in DMEM containing 20% fetal bovine serum and 1% chicken embryo extracts in a 5% CO2 and induced to differentiation in a serum free medium, OPTIPRO™ SFM (Gibco), to make the cells hyposialylated. Where indicated, myotubes were treated with 5 mM NeuAc (Japan Food and Liquor Alliance) or 5 mM NAC (Sigma) for 72 h.
To evaluate the ROS generation under pro-oxidants, myotubes cultured in each condition were loaded with 5 μM DCFH-DA for 1 h and recovered in the different concentrations of H2O2 or menadione-containing medium. After 30 min incubation in dark at 37° C., the microplate containing cells with pro-oxidants were placed in a plate reader and fluorescence was captured at every 5 min until it reached a plateau. Maximum fluorescence of each well was used for analysis.

GNE Myopathy myotubes [4] = test: Intracellular ROS (DCF fluorescence) in cultured myotubes; assay type: cell-based, mice; conditions: GNE Myopathy myotubes treated with 5 mM for 72 h; mean±SEM; untreated 1113±30, littermate controls 115±15
Method: as §1
For the analysis of intracellular ROS, a popular fluorescence-based probe, 2′,7′-dichlorodihydrofluorescein diacetate (DCFH-DA) (Wang et al., Free Radical Biology and Medicine. 1999; 27:612-616; Halliwell and Whiteman, Br J Pharmacol. 2004; 142:231-255) was used. Cells were loaded with 5 μM DCFH-DA (Invitrogen) in PBS for an hour and recovered with phenol red-free DMEM (Gibco) for 30 min at 37° C. in a 5% CO2 incubator. Then the cells were placed in a CYTOFLUOR® Series 4000 multi-well fluorescence plate reader (PerSeptive Biosystems) with temperature maintained at 37° C. The excitation filter was set at 485 nm and the emission filter was set at 530 nm. The fluorescence from each well was captured and recorded.

GNE Myopathy myotubes [5] = test: Cell viability assay under pro-oxidants (propidium iodide/Hoechst co-staining); assay type: cell-based, mice; conditions: treated GNE Myopathy myotubes vs untreated; same concentrations of H2O2 or menadione
Method: as §1
For the cell viability assay, myotubes were exposed to H2O2 for 24 h and to menadione for 6 h before staining. Nuclear staining with Hoechst 33342 (Thermo Scientific) and propidium iodide (PI) (Dojindo) was used for morphological assessment of apoptosis by fluorescence microscopy (Lee and Shacter, Journal of Biological Chemistry. 1999; 274:19792-19798). Minimum 200 nuclei were counted and cell viability was calculated by the exclusion of PI-stained nuclei from Hoechst 33342-stained nuclei.

Row | Compound | Hyposialylation of GNE myopathy mice skeletal muscle tissue [1] | Sialylation status of skeletal muscle (SNA and VVA signal) ([1]; oral 1 g/kg/day for 12 weeks, gastrocnemius, adapted from Niethamer et al., 2012) | Prevention of muscle disease in GNE myopathy mice (GNE myopathy mice) | Sialylation of glycans in heart tissue (SNA lectin staining) [2] | ΔDCF fluorescence increments on exposure to pro-oxidants (GNE Myopathy myotubes [3]) | Mean DCF fluorescence (intracellular ROS generation) (GNE Myopathy myotubes [4]) | Relative cell viability under pro-oxidants (GNE Myopathy myotubes [5]) | Muscle force generation in treated mice (GNE myopathy mice; sialic acid supplement, Malicdan et al. 2009, 2008)
1 | CC(=O)NC1C(O)[C@H](O)C(CO)O[C@H]1O (stereo partly shown) [ManNAc, N-acetyl mannosamine] | rescue hyposialylation | restored the sialylation status back to the normal range | prophylactically prevent muscle disease | significantly increased sialylation |  |  |  | 
2 | CC(=O)N[C@H]1[C@H]([C@H](O)[C@H](O)CO)OC(O)(C(=O)O)C[C@@H]1O (stereo partly shown) [NeuAc, N-acetyl neuraminic acid] | rescue hyposialylation |  | prophylactically prevent muscle disease | significantly increased sialylation | significantly decreased | 349±19 AFU | more resistant | increased in proportion to muscle fiber diameter
3 | N[C@@H]1C(O)O[C@H](CO)[C@@H](O)[C@@H]1O (stereo partly shown) [mannosamine] | rescue hyposialylation |  |  |  |  |  |  | 
4 | sialyllactose |  |  | prophylactically prevent muscle disease |  |  |  |  | 
